Experiments:
CD34+ cells = test: Expansion of CD34+ cells using human cord blood-derived CD34+ cells (liquid culture, flow cytometry); assay type: cell-based; conditions: Assay Example 2; 1 or 2 μM; 100 ng/mL SCF + 20 ng/mL TPO; 7 days
Experimental: Human cord blood-derived CD34^+ cells were purchased from Lonza and plated on a 24-well plate (Corning) (10000 cells/1 mL/well). As the culture medium, StemSpan SFEM (StemCell Technologies) containing 100 ng/mL SCF (Wako Pure Chemical Industries) and 20 ng/mL TPO (PeproTech) in terms of final concentration was used, and garcinol (COSMO BIO) dissolved in dimethyl sulfoxide was added to the medium in an amount of 0.1% (v/v) to a final concentration of 5 or 10 μM. Similarly, isogarcinol (Reference Synthetic Example 1) dissolved in dimethyl sulfoxide was added to the medium in an amount of 0.1% (v/v) to a final concentration of 2 or 5 μM. […]
After the cells were incubated in liquid culture at 37° C. for 7 days in a CO2 incubator (5% CO2), the number of viable cells was counted by trypan blue assay. The number of CD34^+CD38^− cells was calculated as follows. […] The stained cells were analyzed with a BD FACSCANTO™ II flow cytometer (Becton, Dickinson and Company) to determined the proportions of CD34^+ cells and CD34^+CD38^− cells, which was multiplied by the number of viable cells to calculate the numbers of CD34^+ cells and CD34^+CD38^− cells. […]
(§1) After the cells were incubated in liquid culture at 37° C. for 7 days in a CO2 incubator (5% CO2), the number of viable cells was counted by trypan blue assay. The number of CD34^+CD38^− cells was calculated in the same manner as in Assay Example 1.

CD34+CD38- cells = test: Expansion of CD34+CD38- cells using human cord blood-derived CD34+ cells (liquid culture, flow cytometry); assay type: cell-based; conditions: for expansion activity on CD34+CD38- cells: 7 days; for expansion activity on hematopoietic stem cells: general statement, compared with the other specific compounds
Experimental: Human cord blood-derived CD34^+ cells were purchased from Lonza and plated on a 24-well plate (Corning) (10000 cells/1 mL/well). As the culture medium, StemSpan SFEM (StemCell Technologies) containing 100 ng/mL SCF (Wako Pure Chemical Industries) and 20 ng/mL TPO (PeproTech) in terms of final concentration was used, and garcinol (COSMO BIO) dissolved in dimethyl sulfoxide was added to the medium in an amount of 0.1% (v/v) to a final concentration of 5 or 10 μM. Similarly, isogarcinol (Reference Synthetic Example 1) dissolved in dimethyl sulfoxide was added to the medium in an amount of 0.1% (v/v) to a final concentration of 2 or 5 μM. As a negative control, the medium containing 0.1% (v/v) dimethyl sulfoxide was used.
After the cells were incubated in liquid culture at 37° C. for 7 days in a CO2 incubator (5% CO2), the number of viable cells was counted by trypan blue assay. The number of CD34^+CD38^− cells was calculated as follows. After the incubation, the cells in the liquid culture was stained with a CD34 antibody (APC, Becton, Dickinson and Company) and a CD38 antibody (P E, Becton, Dickinson and Company), then washed with PBS(−) containing 2% (v/v) FBS and stained with propidium iodide (Sigma-Aldrich Japan) added to a final concentration of 5 μg/mL. The stained cells were analyzed with a BD FACSCANTO™ II flow cytometer (Becton, Dickinson and Company) to determined the proportions of CD34^+ cells and CD34^+CD38^− cells, which was multiplied by the number of viable cells to calculate the numbers of CD34^+ cells and CD34^+CD38^− cells.
Human cord blood-derived CD34^+ cells purchased from the same supplier as in Assay Example 1 were plated on a 24-well plate (Corning) (10000 cells/1 mL/well). As the culture medium, StemSpan SFEM (StemCell Technologies) containing 100 ng/mL SCF (Wako Pure Chemical Industries) and 20 ng/mL TPO (PeproTech) in terms of final concentration was used, and O-monomethylisogarcinol (Reference Synthetic Example 2) dissolved in dimethyl sulfoxide was added to the medium to a final concentration of 1 or 2 μM.
as §1
Human cord blood-derived CD34^+ cells purchased from the same supplier as in Assay Example 1 were plated on a 24-well plate (Corning) (10000 cells/1 mL/well). […]

HPP-CFC colonies = test: Expansion of HPP-CFU using human cord blood-derived CD34+ cells (blood cell colony forming assay); assay type: cell-based; conditions: then 500 cells/dish MethoCult GF H4435, 12 days, None = 19
Experimental: The effects of garcinol and isogarcinol as compounds of the present invention on hematopoietic progenitor cells were measured by blood cell colony forming assay. The liquid cell cultures obtained in Assay Example 1 were poured into 3.5-cm Petri dishes with MethoCult GF H4435 culture medium (StemCell Technologies) at 500 cells/dish and incubated in a CO2 incubator (5% CO2, 37° C.) for 12 days. The number of HPP-CFC colonies in each plate was counted under a microscope routinely. The assay was carried out at least in duplicate, and the numbers of HPP-CFC colonies were averaged.

[1] = system: SCID-repopulating cells (SRC); test: Transplantation of cell culture into immunodeficient (NOD/SCID) mice (SRC assay); assay type: in vivo, human; conditions: CD34+ cells cultured with 10 μM, transplanted into irradiated NOD/SCID mice, 8 weeks; vs cells cultured without compound (FIG. 5)
Experimental: Human cord blood-derived CD34^+ cells cultured in the presence of 10 μM garcinol (COSMO BIO) in terms of final concentration or in the absence of garcinol (i.e., in a culture medium containing 0.1% (v/v) dimethyl sulfoxide) in the same manner as in Assay Example 1 were transplanted into at least five 7- to 8-week-old NOD/SCID mice by tail vein injection at 4 to 5×10^4 cells/mouse in terms of the initial number of CD34^+ cells after a sublethal dose of irradiation (2.5 Gy). Eight weeks after the transplantation, the mice were killed, and the bone marrow cells were collected from both thighbones. Subsequently, the bone marrow cells were stained with a human CD45 antibody (APC, Becton, Dickinson and Company), then washed with PBS(−) containing 2%(v/v) FBS and stained with propidium iodide (Sigma-Aldrich Japan) added to a final concentration of 5 μg/mL. The stained cells were analyzed by flow cytometry to determined the proportion of human CD45^+ cells in the bone marrow cells.

SMILES	expansion activity on CD34+ cells (CD34+ cells)	expansion activity on CD34+CD38- cells (CD34+CD38- cells; Assay Example 2, 1 or 2 μM, 100 ng/mL SCF + 20 ng/mL TPO, vs absence of compound (FIG. 3))	Number of HPP-CFC colonies (HPP-CFC colonies; 5 μM in 7-day liquid culture (SCF+TPO))	expansion activity on hematopoietic stem cells (CD34+CD38- cells)	SRC expanding effect (proportion of human CD45+ cells in bone marrow) [1]	Number of HPP-CFC colonies (HPP-CFC colonies; 10 μM in 7-day liquid culture (SCF+TPO))	expansion activity on CD34+CD38- cells (CD34+CD38- cells; Assay Example 3, 10 μM, in the presence of SCF, SCF and TPO, or SCF, TPO and FL, compared with absence of the compound (FIG. 4))
COc1ccc(C(=O)C2=C3OC(C)(C)[C@@H](CC=C(C)C)C[C@@]34C[C@@H](CC=C(C)C)C(C)(C)[C@@](CC=C(C)C)(C2=O)C4=O)cc1O [O-monomethylisogarcinol, O-Monomethylisogarcinol]	excellent expansion activity	excellent expansion activity					
CC(C)=CC[C@H]1C[C@@]23C[C@@H](CC=C(C)C)C(C)(C)[C@@](CC=C(C)C)(C(=O)C(C(=O)c4ccc(O)c(O)c4)=C2OC1(C)C)C3=O [isogarcinol, Isogarcinol]			42	especially strong expansion activity			
C=C(C)[C@@H](CC=C(C)C)C[C@@]12C[C@@H](CC=C(C)C)C(C)(C)[C@@](CC=C(C)C)(C(=O)C(C(=O)c3ccc(O)c(O)c3)=C1O)C2=O [garcinol, Garcinol]				especially strong expansion activity	excellent SRC expanding effect	35	higher expansion activity

Source: patent US9187728B2, “Method for producing hematopoietic stem cells” (Nissan Chemical Industries, Ltd., priority 2010, dated 2015)
